Measurements: patent US20150291933A1, “CELL DIFFERENTIATION” (THE UNIVERSITY OF MANCHESTER, priority 2012, published 2015)
Entries after “also recorded” stand apart in the source; their conditions may differ. Where no end group is shown, it is not given here.

What was measured:
[1] = molecular target: T1, human E-cadherin (human, UniProt P12830 155-882); experiment: cell-based or functional assay
T1 sequence: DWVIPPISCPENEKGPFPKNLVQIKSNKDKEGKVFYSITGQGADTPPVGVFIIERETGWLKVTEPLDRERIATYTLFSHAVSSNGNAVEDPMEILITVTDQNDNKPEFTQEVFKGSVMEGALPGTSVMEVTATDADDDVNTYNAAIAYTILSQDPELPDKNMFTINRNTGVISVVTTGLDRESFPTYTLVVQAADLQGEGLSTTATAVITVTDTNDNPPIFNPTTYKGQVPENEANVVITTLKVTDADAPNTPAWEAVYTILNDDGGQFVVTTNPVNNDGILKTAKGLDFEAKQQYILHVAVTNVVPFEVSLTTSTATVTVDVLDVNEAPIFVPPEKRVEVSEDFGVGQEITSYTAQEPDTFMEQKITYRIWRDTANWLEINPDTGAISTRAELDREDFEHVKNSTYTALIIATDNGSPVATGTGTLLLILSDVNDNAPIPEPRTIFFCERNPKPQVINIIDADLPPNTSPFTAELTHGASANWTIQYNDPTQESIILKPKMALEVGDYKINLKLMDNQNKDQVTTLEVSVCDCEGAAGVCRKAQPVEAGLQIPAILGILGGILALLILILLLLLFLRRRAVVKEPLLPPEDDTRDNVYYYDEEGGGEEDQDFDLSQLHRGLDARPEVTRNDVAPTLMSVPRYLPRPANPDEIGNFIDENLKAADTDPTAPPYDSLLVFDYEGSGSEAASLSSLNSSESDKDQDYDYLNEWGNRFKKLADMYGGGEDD

[2] = test system: Human iPS cells (hiPSCs); experiment: Neural differentiation of hiPSCs using E-cadherin inhibitors, Nestin immunofluorescence; type: cell-based; details: day 7; for number of Nestin positive cells: treated daily, peptides 1 mM, antibody 2 μg/ml
Experimental: Human iPSCs were differentiated as previously described. Peptides A, B or C were supplemented to the media at a final concentration of 1 mM and E-cadherin neutralising antibody supplemented to the media at 2 μg/ml daily for 6-7 days. The equivalent volume of water was added to cultures as a vehicle control.
All other methodology was performed as outlined above in connection with neural differentiation and characterisation of resultant neural progenitor cells (NPCs). […] Accordingly, supplementation in this manner may be a preferred embodiment of methods of the invention as practiced upon pluripotent stem cells such as iPSCs.
To initiate differentiation confluent undifferentiated cells were dissociated and seeded at a low density onto gelatin coated wells in differentiation medium supplemented with/without E-cadherin-inhibitors for 7 days. To identify the phenotype of these cells, cultures were harvested at day 7 and immunofluorescent analysis of the neural progenitor cell marker Nestin was performed (FIG. 10).

[3] = test system: Human iPS cells (hiPSCs); experiment: Effect of E-cadherin inhibitors on cell-cell contact in pluripotent hiPSCs (phase contrast); type: cell-based; details: 48 h in MTesR complete media, adherent feeder free
Experimental: Human iPS cells (hiPSCs) were grown under adherent feeder-free culture conditions. All cells were propagated for a minimum of two passages as feeder-free cultures to exclude unwanted residual mouse fibroblast feeder cells. Cells were cultured in MTesR complete medium (Stem Cell Technologies). Cells were cultured on Matrigel™- (BD Biosciences 356234) coated tissue culture grade plates. Matrigel-treated plates were coated with pre-diluted Matrigel™ (1:100 in DMEM/F12 media) and incubated at room temperature prior to use. Media was replenished every 24 h and cells were passaged upon confluency. Cells were dissociated using trypsin-EDTA.
Human iPS cells were grown under standard adherent feeder-free culture conditions prior to induction of differentiation.

[4] = test system: Human ES cells; experiment: Assessment of non-neuronal lineages in directed neural differentiation of human ES cells; type: cell-based
Experimental: (§1) Confluent undifferentiated cells were dissociated and seeded at a low density (2.0E5 cells/962 mm2) onto 0.1% w/v gelatin coated wells in differentiation medium alone (DMEM/F-12+GlutaMAX (Invitrogen), 10% Knockout Serum Replacement (KSR) (Invitrogen), Penicillin/Streptomycin (1×) (PAA) for 24 hours prior to media supplementation with an E-cadherin inhibiting peptide (H-Ser-Trp-Glu-Leu-Tyr-Tyr-Pro-Leu-Arg-Ala-Asn-Leu-NH2, >95% purity, acetate salt background) (Bachem) as published in Devemy & Blashuk (2009). Peptide was reconstituted at 30 mg/ml in sterile ddH2O (20 mM stock concentration), with a working concentration 500 μM for inhibition of human E-cadherin. Media (and peptide) were replenished every 2 days for 6-7 days. After this time peptide is no longer necessary. Morphological analysis and immunostaining with markers for neural precursor cells and more mature neural cells were performed during the course of the differentiation protocol.
Cells were fixed in 4% w/v paraformaldehyde and stained in situ (Mohamet et al, 2010). […] The cells were viewed on a Leica DM500 fluorescence microscope. […]

[5] = test system: Human ES cells (HUES7, H9, MAN7); experiment: Differentiation of human ES cells towards neural precursor cells in adherent culture, immunofluorescence of neural precursor markers; type: cell-based
Experimental: Human ES cell lines, HUES7 (passage 39-44), H9 (passage 50-55) and MAN7 (passage 18-21) were grown under adherent feeder-free culture conditions prior to induction of differentiation. Cells were cultured in STEMPRO® (Invitrogen—complete medium) which comprises; DMEM/F-12+GlutaMAX, 8 ng/ml FGF-basic factor (Peprotec), STEMPRO® hESC SFM Growth Supplement (1×), 1.8% BSA, and 0.1 Mm 2-mercaptoethanol. Cells were cultured on either Matrigel™- (BD Biosciences 356234) or Geltrex™- (Invitrogen 12760-021) coated tissue culture grade plates. Matrigel-treated plates were coated with pre-diluted Matrigel™ (1:100 in DMEM/F12 media) and incubated at room temperature prior to use. Geltrex™-coated plates were coated with pre-diluted Geltrex™ (1:29 in DMEM/F12 media) and incubated for 1 h at 37° C. prior to use. Media was replenished every 24 h and cells were passaged upon confluency. All cells were propagated for a minimum of two passages as feeder-free cultures to exclude unwanted residual mouse fibroblast feeder cells. Cells were dissociated either using trypsin-EDTA (Sigma) or Collagenase IV (Sigma-1 mg/ml final concentration) dependent on the ES cell line used.
as §1, with “Morphological analysis and immunostaining with markers for neural precursor cells and more mature neural cells were performed during the course of the differentiation protocol.” left out
Cells were fixed in 4% w/v paraformaldehyde and stained in situ (Mohamet et al, 2010). […] The cells were viewed on a Leica DM500 fluorescence microscope.

E-cadherin neutralising antibody (SHE78.7 clone, Invitrogen 13-5700)
loss of cell-cell contact in hiPSCs (phase contrast, 48 h, antibody 2 ug/ml) [1]: > 85%

SRELYYPLRANL [Peptide B, control]
number of Nestin positive cells [2]: 33%
culture morphology / cell-cell contacts [3]: retain the compacted morphology typical of hiPSCs; also recorded: retain the compacted morphology of hiPSCs, without loss of cell-cell contacts

SWELYYPL (Inhibitory peptide) [Peptide C]
Nestin positive cells, one experiment (variable results) ([2]; peptide 1 mM, one experiment only): approx. 50%
number of Nestin positive cells [2]: 76%
loss of cell-cell contact, proportion of cells [3]: 50-60%

SWELYYPLRANL (SWELYYPLRANL-NH2; also: acetate salt) [Peptide A, Study 1 used H-Ser-Trp-Glu-Leu-Tyr-Tyr-Pro-Leu-Arg-Ala-Asn-Leu-NH2 (Bachem, acetate salt background)]
α smooth muscle actin (mesoderm) expression ([4]; cells harvested on day 15, n=3): only detected in 1 cell out of all cultures assessed
staining of endoderm marker Forkhead box protein A2 (foxA2) ([4]; differentiated for 15 days): no positive staining
number of Nestin positive cells [2]: 94%
undifferentiated colonies (phase contrast) ([5]; cultured 6-7 days in media supplemented with peptide): no undifferentiated colonies were observed
number of Nestin positive cells ([5]; media supplemented with peptide 500 μM, 7 days of differentiation, n=3): 95.3%
NESTIN and VIMENTIN expression (immunofluorescence) ([5]; peptide 500 μM, harvested at day 7): homogenous expression

B1: Peptide A (SWELYYPLRANL) (peptide)
peptide: SWELYYPLRANL
modifications: not fully specified
loss of cell-cell contact in hiPSCs (phase contrast, 48 h, peptide 1 mM) [1]: > 85%
